Source: publication PMC11857211, “Bioprospecting Bioactive Peptides in Halobatrachus didactylus Body Mucus: From In Silico Insights to Essential In Vitro Validation” (Marine Drugs, 2025)
Marks after values point to notes of the source that are not given here.

Legend:
[1] = tested on: Salmonella enterica serovar Enteritidis ATCC 13076; assay: Growth inhibition curves; format: cell-based; settings: HdKTLR 262, HdKNL 262, HdPPP 130 (5% DMSO), HdVLPN 204, HdLPN 227 µg/mL; MH broth, OD 600 nm hourly, 24 h, 37 °C
Experimental: (§1) The antimicrobial activity of the mucus samples was evaluated following the method by against the following pathogenic bacteria: Gram-negative Escherichia coli ATCC 25922, Salmonella enterica serovar Enteritidis ATCC 13076, and Pseudomonas aeruginosa ATCC 27853 and Gram-positive Staphylococcus aureus ATCC 6538. The mucus samples were combined with a 1/10 ratio of inoculum containing 1% (v/v) of bacteria cultured for 24 h in MH broth. For the positive control, deionized water was used instead of mucus samples with a 1% inoculum, while deionized water with MH served as the negative control. A control using chloramphenicol was made at a concentration of 16 µg/mL for E. coli, S. enterica, and P. aeruginosa and 100 µg/mL for S. aureus. The mixture was then transferred to a 96-well microplate (Sarstedt, Germany), and the optical density (OD) at 600 nm was measured every hour for a 24 h period at 37 °C using a microplate reader (Multiskan GO, Thermo Scientific, Finland). An increase in OD indicated bacterial growth.

[2] = tested on: Staphylococcus aureus ATCC 6538; assay: Growth inhibition curves; format: cell-based; settings: HdKTLR 262, HdKNL 262, HdPPP 130 (5% DMSO), HdVLPN 204, HdLPN 227 µg/mL; MH broth, OD 600 nm hourly, 24 h, 37 °C
Experimental: as §1

[3] = tested on: Pseudomonas aeruginosa ATCC 27853; assay: Growth inhibition curves; format: cell-based; settings: HdKTLR 262, HdKNL 262, HdPPP 130 (5% DMSO), HdVLPN 204, HdLPN 227 µg/mL; MH broth, OD 600 nm hourly, 24 h, 37 °C
Experimental: as §1

[4] = tested on: Escherichia coli ATCC 25922; assay: Growth inhibition curves; format: cell-based; settings: HdKTLR 262, HdKNL 262, HdPPP 130 (5% DMSO), HdVLPN 204, HdLPN 227 µg/mL; MH broth, OD 600 nm hourly, 24 h, 37 °C
Experimental: as §1

P. aeruginosa biofilm = assay: Antibiofilm activity (crystal violet); format: cell-based, Pseudomonas aeruginosa; settings: 24 h incubation, HdKTLR 262, HdKNL 262, HdPPP 130, HdVLPN 204, HdLPN 227 µg/mL, OD 595 nm
Experimental: (§2) The antibiofilm activity was determined according to the following method, with some modifications. Taking the microplate from 24 h inhibition growth curves, the contents of the plate were discarded, and each well was carefully washed three times with distilled water to remove non-adherent cells. The adhered cells were fixed with 150 µL of methanol for 10 min. Then, the methanol was discarded, the plates were left to dry, and then, the fixed biofilm was stained with […] of crystal violet (CV) for 10 min. Excess stain was rinsed out by placing the plate under slow-running tap water. Once the plates were air-dried, the dye attached to the adherent cells was resolubilized by adding 150 µL of 33% (v/v) glacial acetic acid and agitated for 15 min. The optical density of the solution obtained was measured at 595 nm using a multidetection plate reader (Synergy H1, Winooski, VT, USA). All tests were carried out in duplicate, with a positive control using an inoculated culture in MH broth and a negative control using MH broth only. The results are presented as the percentage of biofilm formation, calculated according to the following formula, where the OD of the sample is the measured OD of the inoculated medium mixed with the peptides, and the OD of the positive control is the OD measured for the positive control.% Biofilm formation = (ODsample/ODpositive control) × 100(1)

[5] = cited from earlier work
Source text: Table 4 Summary of peptide solubility and concentration values. | column: Solubility || A high-performance size exclusion chromatography (HPSEC) analysis was employed to validate the molecular weight of the selected peptides, HdKTLR, HdKNL, HdVLPN, and HdLPN, synthesized by GenScript Biotech (Rijswijk, The Netherlands), following the preparation instructions provided in the technical datasheet. […] At higher concentrations, viscosity may increase due to molecular interactions between DMSO, buffer ions, and water. In iso ...

S. enterica biofilm = assay: Antibiofilm activity (crystal violet); format: cell-based, Salmonella enterica; settings: 24 h incubation, HdKTLR 262, HdKNL 262, HdPPP 130, HdVLPN 204, HdLPN 227 µg/mL, OD 595 nm
Experimental: as §2

E. coli biofilm = assay: Antibiofilm activity (crystal violet); format: cell-based, Escherichia coli; settings: 24 h incubation, HdKTLR 262, HdKNL 262, HdPPP 130, HdVLPN 204, HdLPN 227 µg/mL, OD 595 nm
Experimental: as §2

ORAC assay = settings: fluorescence monitored 80 min, means (n ≥ 3) ± SD, nd: not detected
Experimental: The ORAC assay followed the protocol outlined by Coscueta et al.. […] Fluorescence was monitored for 80 min at 1 min intervals. Each sample, standard, blank, or control, analysis was duplicated. The final ORAC values were expressed as µmol TE/µmol of peptide for the peptides and µmol TE /mg of protein for the digestion retentate and permeate contents.

[6] = ABTS radical scavenging assay; settings: for Effect of pH and ionic strength on ABTS antioxidant activity: ABTS radical solution in HPSEC buffers, 344 and 700 mM, pH 3.0, 5.0, 7.0; for ABTS radical scavenging value: SD
Experimental: ABTS radical activity is based on an antioxidant’s capacity to scavenge the ABTS’s oxidized state. For this, ABTS radical scavenging activity was performed in a 96-well microplate, following the method described by. The absorbance was measured with a multidetection plate reader (Synergy H1, Winooski, VT, USA). For each sample, the standard and control analyses were duplicated. All measurements were performed in duplicate. The results are expressed in µmol of Trolox equivalents/µmol of peptide. To test the antioxidant activity under different pH and ionic strength conditions, the ABTS radical solution was prepared using the same buffers employed in the HPSEC analysis.

[7] = pH 3 and 344 mM ionic strength, means (n ≥ 3) ± SD
[8] = pH 7.0 and 700 mM ionic strength, means (n ≥ 3) ± SD

Row | Sequence | Antimicrobial activity (growth inhibition curve) [1] | Antimicrobial activity (growth inhibition curve) [2] | Antimicrobial activity (growth inhibition curve) [3] | Antimicrobial activity (growth inhibition curve) [4] | Biofilm formation versus control (P. aeruginosa biofilm) | Solubility (solvent) [5] | Biofilm formation versus control (S. enterica biofilm) | Biofilm formation versus control (E. coli biofilm) | ORAC (ORAC assay; SD) | Effect of pH and ionic strength on ABTS antioxidant activity [6] | ABTS ([6]; peptide in H2O (HdPPP in DMSO), means (n ≥ 3) ± SD, nd: not detected) | ORAC (ORAC assay) | ABTS radical scavenging value [6, 7] | ABTS radical scavenging value [6, 8]
1 | DPPNPKNL [HdKNL] | did not demonstrate antimicrobial potential | did not demonstrate antimicrobial potential | did not demonstrate antimicrobial potential | did not demonstrate antimicrobial potential | substantially reduced biofilm production | H2O | no significant differences | no significant differences | 0.048 ± 0.002 ^a µmol TE/µmol Peptide | remained unaffected by a decrease in pH | no antioxidant activity was observed |  |  | 
2 | EDNSELGQETPTLR [HdKTLR] | did not demonstrate antimicrobial potential | did not demonstrate antimicrobial potential | did not demonstrate antimicrobial potential | did not demonstrate antimicrobial potential | substantially reduced biofilm production | H2O | no significant differences | no significant differences |  | no observable antioxidant activity |  |  |  | 
3 | PFPGPLPN [HdLPN] | did not demonstrate antimicrobial potential | did not demonstrate antimicrobial potential | did not demonstrate antimicrobial potential | did not demonstrate antimicrobial potential | substantially reduced biofilm production | H2O | no significant differences | no significant differences | 0.195 ± 0.030 ^b,c µmol TE/µmol Peptide | significant decrease in antioxidant activity |  | 0.195 µmol TE/µmol Peptide | 0.012 ± 0.004 µmol TE/µmol of peptide | 0.283 ± 0.177 µmol TE/µmol of peptide
4 | VYPFPGPLPN [HdVLPN] | did not demonstrate antimicrobial potential | did not demonstrate antimicrobial potential | did not demonstrate antimicrobial potential | did not demonstrate antimicrobial potential | substantially reduced biofilm production | H2O | no significant differences | no significant differences | 1.560 ± 0.110 ^c µmol TE/µmol Peptide | significant decrease in antioxidant activity |  | 1.560 µmol TE/µmol Peptide | 0.163 ± 0.002 µmol TE/µmol of peptide | 0.827 ± 0.021 µmol TE/µmol of peptide
